This passage reports MIC results from ChEMBL document CHEMBL5233274, “Current Landscape and Future Perspective of Oxazolidinone Scaffolds Containing Antibacterial Drugs” (J Med Chem, 2021).

Type in all cases: functional
The test system of assay [1] is Enterococcus. As to the kind of experiment: Antibacterial activity against vancomycin-resistant Enterococcus assessed as inhibition of bacterial growth by CLSI protocol based method.
Assay [2] deals with Staphylococcus aureus. Description: Antibacterial activity against methicillin-resistant Staphylococcus aureus assessed as inhibition of bacterial growth by CLSI protocol based method.
In assay [3] the test system is Staphylococcus aureus. As to the kind of experiment: Antibacterial activity against Staphylococcus aureus ATCC 29213 assessed as inhibition of bacterial growth by CLSI protocol based method.
Assay [4] concerns Staphylococcus aureus. As to the kind of experiment: Antibacterial activity against methicillin-resistant Staphylococcus aureus assessed as inhibition of bacterial growth incubated for 18 to 24 hrs by CLSI protocol based Tryptic soy broth method. Particulars: time 18-24 hrs.
For assay [5], the system named is Staphylococcus aureus. Description: Antibacterial activity against Staphylococcus aureus ATCC 25923 assessed as inhibition of bacterial growth incubated for 18 to 24 hrs by CLSI protocol based Tryptic soy broth method. Particulars: time 18-24 hrs.
In assay [6] the test system is Enterococcus faecalis. Description: Antibacterial activity against Enterococcus faecalis ATCC 29212 assessed as inhibition of bacterial growth incubated for 18 to 24 hrs by CLSI protocol based Tryptic soy broth method. Particulars: time 18-24 hrs.
For assay [7], the system named is Staphylococcus epidermidis. Description: Antibacterial activity against Staphylococcus epidermidis ATCC 12228 assessed as inhibition of bacterial growth incubated for 18 to 24 hrs by CLSI protocol based Tryptic soy broth method. Particulars: time 18-24 hrs.
The subject of assay [8] is Escherichia coli. Description: Antibacterial activity against Escherichia coli assessed as inhibition of bacterial growth measured per 100 uL incubated for 24 hrs by agar well diffusion method.
The test system of assay [9] is Candida albicans. Description: Antifungal activity against Candida albicans assessed as inhibition of fungal growth incubated measured per 100 uL incubated for 24 hrs by agar well diffusion method.
Assay [10] has as its system Saccharomyces cerevisiae. Description: Antifungal activity against Saccharomyces cerevisiae assessed as inhibition of fungal growth incubated measured per 100 uL incubated for 24 hrs by agar well diffusion method.
Assay [11] relates to Staphylococcus aureus. As to the kind of experiment: Antibacterial activity against Staphylococcus aureus assessed as inhibition of bacterial growth measured per 100 uL incubated for 24 hrs by agar well diffusion method.
For assay [12], the system named is Bacillus subtilis. Description: Antibacterial activity against Bacillus subtilis assessed as inhibition of bacterial growth measured per 100 uL incubated for 24 hrs by agar well diffusion method.
Assay [13] relates to Pseudomonas aeruginosa. As to the kind of experiment: Antibacterial activity against Pseudomonas aeruginosa assessed as inhibition of bacterial growth measured per 100 uL incubated for 24 hrs by agar well diffusion method.
Assay [14] relates to Enterococcus faecalis. Description: Antibacterial activity against Streptococcus faecalis NCIM 2080 assessed as inhibition of bacterial growth incubated for 24 hrs by serial dilution method.
Assay [15] deals with Pseudomonas aeruginosa. As to the kind of experiment: Antibacterial activity against Pseudomonas aeruginosa NCIM 5210 assessed as inhibition of bacterial growth incubated for 24 hrs by serial dilution method.
Assay [16] relates to Klebsiella pneumoniae. As to the kind of experiment: Antibacterial activity against Klebsiella pneumoniae NCIM 5289 assessed as inhibition of bacterial growth incubated for 24 hrs by serial dilution method.
Assay [17] deals with Escherichia coli. Description: Antibacterial activity against Escherichia coli NCIM 2065 assessed as inhibition of bacterial growth incubated for 24 hrs by serial dilution method.
For assay [18], the system named is Bacillus subtilis. As to the kind of experiment: Antibacterial activity against Bacillus subtilis NCIM 2097 assessed as inhibition of bacterial growth incubated for 24 hrs by serial broth dilution method.
Assay [19] concerns Staphylococcus aureus. As to the kind of experiment: Antibacterial activity against Staphylococcus aureus NCIM 5257 assessed as inhibition of bacterial growth incubated for 24 hrs by serial broth dilution method.

≈ marks a conversion by molar mass, not a printed value.

For `CC(=O)NC[C@H]1CN(c2ccc(N3CCN(/N=C/c4cccc([N+](=O)[O-])c4)CC3)c(F)c2)C(=O)O1`, the MIC in [1] was determined as 2 µg/mL (≈ 4.13 µM); in assay [2], 1 µg/mL (≈ 2.06 µM); in assay [3], 2 µg/mL (≈ 4.13 µM).

With `COCC(=O)NC[C@H]1CN(c2ccc(OCc3nc(C)c(C)nc3C)c(F)c2)C(=O)O1`, the MIC in assay [4] came to 32 µg/mL (≈ 74 µM); in [5] it was 128 µg/mL (≈ 296 µM); in assay [6], 128 µg/mL (≈ 296 µM); in [7], 32 µg/mL (≈ 74 µM).

Turning to `O=C1NC(Cc2ccc(Nc3nc(-c4cccc(Cl)c4)cs3)cc2)CO1` (stereo not given), the MIC in assay [8], in [9], in assay [10], in assay [11], in assay [12] and in assay [13] was 12.5 µg each time.

Consider `Cc1nc(C)c(COc2ccc(N3C[C@H](CNC(=O)C(Cl)Cl)OC3=O)cc2)nc1C`, for which the MIC worked out at 4 µg/mL (≈ 8.82 µM) in assay [4], 8 µg/mL (≈ 17.6 µM) in assay [5], 16 µg/mL (≈ 35.3 µM) in [6] and 8 µg/mL (≈ 17.6 µM) in assay [7].

For the molecule `Cc1nc(C)c(COc2ccc(N3C[C@H](CNC(=O)CCl)OC3=O)cc2)nc1C`, the MIC was determined as 8 µg/mL (≈ 19.1 µM) in assay [4], 8 µg/mL (≈ 19.1 µM) in [5], 16 µg/mL (≈ 38.2 µM) in assay [6] and 8 µg/mL (≈ 19.1 µM) in assay [7].

In the case of `CC(=O)NC[C@H]1CN(c2ccc(OCc3nc(C)c(C)nc3C)c(F)c2)C(=O)O1`, the MIC in assay [4] turned out to be 4 µg/mL (≈ 9.94 µM); in [5], 8 µg/mL (≈ 19.9 µM); in assay [6], 16 µg/mL (≈ 39.8 µM); in assay [7], 4 µg/mL (≈ 9.94 µM).

Regarding `Cc1nc(C)c(COc2ccc(N3C[C@H](CNC(=O)C(Cl)Cl)OC3=O)cc2F)nc1C`, the MIC in assay [4] is 2 µg/mL (≈ 4.24 µM); in assay [5] it was 4 µg/mL (≈ 8.49 µM); in assay [6] it was 8 µg/mL (≈ 17 µM); in assay [7] it was 4 µg/mL (≈ 8.49 µM).

Consider `O=C(/C=C/c1ccc(O)cc1)c1ccc(-c2ccc(N3C[C@H](CO)OC3=O)cc2)cc1`, for which the MIC in assay [14], in [15], in assay [16], in [17], in assay [18] and in assay [19] was 3.12 µg/mL (≈ 7.52 µM) each time.

On to `C[C@@H]1[C@H](O)[C@@H](C)/C=C/C=C/C=C/C=C/C=C/C=C/C=C/[C@H](O[C@@H]2O[C@H](C)[C@@H](O)[C@H](N)[C@@H]2O)C[C@@H]2O[C@](O)(C[C@@H](O)C[C@@H](O)[C@H](O)CC[C@@H](O)C[C@@H](O)CC(=O)O[C@H]1C)C[C@H](O)[C@H]2C(=O)O` [AMPHOTERICIN B], for which the MIC in assay [8] and in [9] was 6.25 µg throughout.

Consider `CC(=O)NC[C@H]1CN(c2ccc(N3CCN(Cc4ccc([N+](=O)[O-])o4)CC3)c(F)c2)C(=O)O1` [RANBEZOLID], for which the MIC in assay [1] was determined as 2 µg/mL (≈ 4.33 µM); in assay [2], 2 µg/mL (≈ 4.33 µM); in assay [3], 1 µg/mL (≈ 2.17 µM).

Regarding `COc1cc(/C=C/C(=O)c2ccc(-c3ccc(N4C[C@H](CO)OC4=O)cc3)cc2)ccc1O`, the MIC in assay [14], in [15], in assay [16], in assay [17], in [18] and in [19] was 3.12 µg/mL (≈ 7.02 µM) in each case.

As for `CC(=O)NC[C@H]1CN(c2ccc(N3CCN(/N=C/c4ccccc4[N+](=O)[O-])CC3)c(F)c2)C(=O)O1`, the MIC was determined as 2 µg/mL (≈ 4.13 µM) in assay [1], 1 µg/mL (≈ 2.06 µM) in assay [2] and 2 µg/mL (≈ 4.13 µM) in assay [3].

With `CC(=O)NC[C@H]1CN(c2ccc(N3CCN(/N=C/Cn4c([N+](=O)[O-])cnc4C)CC3)c(F)c2)C(=O)O1`, the MIC was found to be 4 µg/mL (≈ 7.96 µM) in assay [1], 1 µg/mL (≈ 1.99 µM) in assay [2] and 1 µg/mL (≈ 1.99 µM) in assay [3].

Consider `CC(=O)NC[C@H]1CN(c2ccc(N3CCN(/N=C/c4ccc([N+](=O)[O-])cc4)CC3)c(F)c2)C(=O)O1`, for which the MIC in [1], in assay [2] and in assay [3] was 4 µg/mL (≈ 8.26 µM) throughout.

As to `CC(=O)NC[C@H]1CN(c2ccc(N3CCN(/N=C/c4ncc(N)n4C)CC3)c(F)c2)C(=O)O1`, the MIC in [1], in assay [2] and in assay [3] was over 8 µg/mL throughout.

In the case of `O=C(/C=C/c1ccccc1O)c1ccc(-c2ccc(N3C[C@H](CO)OC3=O)cc2)cc1`, the MIC in assay [14], in assay [15], in assay [16], in assay [17], in assay [18] and in assay [19] was 3.12 µg/mL (≈ 7.52 µM) each time.

For `O=C(/C=C/c1ccc([N+](=O)[O-])cc1)c1ccc(-c2ccc(N3C[C@H](CO)OC3=O)cc2)cc1`, the MIC in [14], in assay [15], in [16], in [17], in [18] and in [19] was 3.12 µg/mL (≈ 7.03 µM) in each case.
